Consider three molecules from patent US20100029012A1, “Method for identifying modulators of the NRF2-KEAP1-AREP pathway” (priority 2006, published 2010).

For assay [1], the target named is T1, His-tagged Keap1-kelch domain polypeptide (Homo sapiens, UniProt Q14145).
T1 construct: the Keap1-kelch domain polypeptide comprises amino acid residues 322 to 609 of the human Keap1 protein; made in house; host or cells: E. coli Rosetta2 BL21 pLysS, plasmid pET15b-Keap1-kelch domain
Briefly: Antibody-based binding assay, displacement of 3H-labeled Nrf2 Peptide 2. To be noted: Keap1-kelch domain polypeptide immobilized via anti-His tag antibody; about 1 nm to about 100 μM; FIG. 2. The source says:
This example provides a protocol for an antibody-based binding assay for identifying activators of the Nrf2-Keap1 system. Because Keap1 protein's or Keap1-kelch domain polypeptide's binding to the assay plate surface is not dependent on divalent metal cations such as nickel, the antibody-based assay is also useful for determining whether the competitive effect observed in an ion-based assay was a result of the analyte competing with binding of the labeled Peptide 2 with the Keap1-kelch domain or with the binding of the Keap1 protein or Keap1-kelch domain polypeptide with divalent cations on the plate. In general, the assay is performed as follows.
One μg/mL of mouse-derived anti-His tag antibody (Catalog No. 35370, Quiagen, Valencia, Calif.) is added to anti-mouse IgG-coated white plates (Catalog No. 15234, Pierce Biotechnology, Inc.) and incubated at room temperature for two hours. The plate is then washed with four chamber volumes of PBS to remove any excess antibody.
Controls include […] unlabeled Nrf2 Peptide 2 and 0.5% DMSO.
During the last 15 minutes of the 4° C. incubation, one L of cold PBS-T is added to the Liquid 1 wash bottle of the EMBLA 96/384 plate washer (Molecular Devices Corporation, Sunnyvale, Calif.). The instrument is primed using program ‘A1’ a minimum of three times. […]
A general note: Loss of bound radioactivity is the signal in a displacement assay; it reports binding, not function.

Assay [2] relates to His tagged Green Fluorescent Protein (GFP). To be noted: relative to DMSO; FIG. 3.
Description: In this assay, His tagged Green Fluorescent Protein (GFP) retention on a divalent metal cation surface is monitored in the presence of analytes.
Stock solutions containing analytes at various concentrations or 500 nL DMSO and controls are transferred into the wells of a CHOICECOAT metal chelate white 384 well plates (Catalog No. NC15140, Pierce Biotechnology, Inc.). The volume is 500 nL per well. Controls include 100 μM unlabeled Peptide 2 and 0.5% DMSO.
An assay solution containing one μg His tagged GFP protein in PBS (per well) is prepared and 50 μL of this assay solution is dispensed into each well of the 384 well plates. The plates are covered and incubated at room temperature for two hours. Following the room temperature incubation, the plates are cooled by incubating in a 4° C. refrigerator for one hour. The plates are then washed by aspirating the well, adding 80 uL of PBS-T, aspirating the well, adding 80 uL of PBS-T, and aspirating the well.
The target in assay [3] is T2, recombinant human His-tagged Keap1-kelch domain polypeptide (human, UniProt Q14145 322-609).
T2 construct: domain: kelch domain; Expressed in E. coli from pET15b between NdeI and BamHI; also called recombinant Keap1-kelch domain; kelch domain of the Keap1 protein; not shown: N-terminal six-histidine tag from vector pET15b
Briefly: method not stated; binding affinity for the kelch domain.

T2 sequence (Q14145 322-609): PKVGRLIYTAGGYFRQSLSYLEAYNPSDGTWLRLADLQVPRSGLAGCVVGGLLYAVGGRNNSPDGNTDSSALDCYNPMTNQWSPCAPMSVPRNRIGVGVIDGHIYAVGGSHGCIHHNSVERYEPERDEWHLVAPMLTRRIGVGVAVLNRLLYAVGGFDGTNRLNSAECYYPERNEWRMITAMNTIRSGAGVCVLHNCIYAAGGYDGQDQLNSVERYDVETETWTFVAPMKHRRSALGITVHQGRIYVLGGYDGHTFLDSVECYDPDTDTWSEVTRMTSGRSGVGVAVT
T1 sequence (Q14145 322-609): as above

On to `CC[C@H](C)[C@H](NC(=O)[C@@H]1CCCN1C(=O)[C@H](CC(C)C)NC(=O)[C@H](Cc1ccccc1)NC(=O)[C@H](CCC(=O)O)NC(=O)CNC(=O)[C@@H](NC(=O)[C@H](CCC(=O)O)NC(=O)[C@H](CCC(=O)O)NC(=O)[C@H](CC(=O)O)NC(=O)[C@H](CC(C)C)NC(=O)[C@H](CCC(N)=O)NC(=O)[C@@H](N)CC(C)C)[C@@H](C)O)C(=O)N[C@@H](CCC(N)=O)C(=O)O` [Peptide 2, NH2-LQLDEETGEFLPIQ-OH], for which the “competition with labeled Peptide 2 for binding to the kelch domain (result in words)” value in assay [1] is recorded as “result from this assay expected for an analyte that competes”. Also, in assay [2], the “percent inhibition of binding of the GFP to the nickel on the surface of the plate” value is recorded as 0%. Regarding RKRNVESGEEELAS [Pgam5 peptide RKRNVESGEEELAS], the binding affinity in assay [3] was roughly 626 nM. As to LLVDGETGESFPAQ [Nrf1 peptide LLVDGETGESFPAQ], the binding affinity in assay [3] was roughly 397 nM.
